Results as given in patent publication US20250122193A1, “NOVEL PYRIDOCARBAZOLIUM COMPOUNDS AND MEDICAL USES THEREOF” (MyCural Therapeutics, priority 2021, published 2025).

Tests used:
MYC:MAX interaction = MYC:MAX interaction (Homo sapiens, UniProt P01106); experiment: split Gaussia luciferase (GLuc) assay, MYC:MAX; assay type: cell-based; parameters: replacing the existing Zip-gene (GCN4) with full length MYC, MYCN or MAX cDNA; expressed in transfected cells; host or cells: HeLa; details: 5 μM
MYC:MAX interaction, sequence (P01106 16-454): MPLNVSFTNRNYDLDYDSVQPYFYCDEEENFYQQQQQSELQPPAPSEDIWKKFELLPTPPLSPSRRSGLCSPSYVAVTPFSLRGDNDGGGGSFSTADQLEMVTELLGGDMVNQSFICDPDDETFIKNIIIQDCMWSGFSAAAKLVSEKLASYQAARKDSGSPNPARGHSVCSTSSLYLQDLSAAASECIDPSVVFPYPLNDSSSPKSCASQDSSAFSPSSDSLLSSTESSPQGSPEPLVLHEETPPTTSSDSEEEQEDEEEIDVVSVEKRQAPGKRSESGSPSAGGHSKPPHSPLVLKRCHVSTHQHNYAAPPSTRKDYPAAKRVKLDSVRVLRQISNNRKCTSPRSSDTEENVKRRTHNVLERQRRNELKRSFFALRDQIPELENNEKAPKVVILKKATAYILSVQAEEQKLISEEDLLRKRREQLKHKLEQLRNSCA
Procedure: A) Molecular structure of MYCMI-7. B-E) split Gaussia luciferase (GLuc) assay. MYC or MYCN and MAX Gluc constructs were co-transfected into HeLa cells together with a firefly luciferase vector. 24 hours post transfection cells were treated with compounds, and after another 17-24 hours cells were harvested and both GLuc and firefly luciferase activities were measured. The mean of three different experiments is shown. Treatment with: B) 5 μM of MYCMI-7, 64 μM 10058-F4 or 5 μM JQ1, respectively, C) 6.5 μM MYCMI-7 on cells expressing MYC:MAX GLuc vs. GCN4:GCN4 GLuc, D) 5 μM MYCMI-7 and 5 μM ellipticine. E) 5 μM MYCMI-7 for various time points. F) in situ proximity ligation assay (isPLA). […] MYC:GAL4 was used as negative control in the isPLA assay. G) Quantification of isPLA dots. (H) Co-immunoprecipitation (co-IP) of endogenous MYC and MAX proteins from MCF7 cells after treatment with 5 μM MYCMI-7 at various times. IP=immunoprecipitation; W=western blot. I) Chromatin immunoprecipitation (ChIP) of MYC at the ODC1 target gene promoter after treatment of cells with 5 μM MYCMI-7 for 6 hours. J) MYC target gene ODC1 expression after treatment with 5 μM MYCMI-7, quantified by qPCR. K) ChIP of MYC at the ODC promoter in MCF7 cells after 5 μM MYCMI-7 treatment for indicated time points. L) Recombinant MYC bHLHZip protein domain immobilized onto a CM5 chip was subjected to various concentrations of MYCMI-7 and the complex of MYCbHLHZip-MYCMI-7 was measured as response units by SPR. The sensogram was produced by subtracting the blank response.
0.2-0.4 μg of each GLuc-construct together with 0.05 μg pCMV-LUC (firefly luciferase) were used per transfection in 12 well plates. 24 hours later cells were treated with compound or DMSO. After another 17 hours, the cells were harvested and lyzed in passive lysis buffer (Promega) supplemented with complete protease inhibitor (Roche). After 60 min incubation at room temperature 20 μM D-luciferin was added (substrate of Firefly luciferase) and luminescence was measured in a Lumat LB9501 (Berthold) or OmegaFluostar (BMG Labtech) luminometer. Directly after, Gaussia luciferase substrate Coelenterazine (Promega) was added to a final concentration of 20 μM in a mixture with “Stop n' Glow” (Promega) and the luciferase activity was measured. The ratio between Gaussia and Firefly luciferase values were calculated and normalized to DMSO-treated control cells.

P493-6 cells = experiment: cell cycle distribution by flow cytometry, P493-6; assay type: cell-based; details: 5 μM, 48 hours
Procedure: FIG. 4: MYCMI-7 induces apoptosis in malignant cells and growth arrest in normal cells. A) Cell cycle distribution analysis by flow cytometry of MYC-regulated P493-6 cells and normal rat embryo fibroblasts (REFs). Left panel, P493-6 synchronized in G0 by 24 hours treatment of […] doxycycline. Doxycycline was removed and the cells were harvested 48 hours after the addition of fresh medium containing DMSO or 5 μM MYCMI-7. Right panel, flow cytometry analysis of normal REFs treated with DMSO or 5 μM MYCMI-7. B) Apoptosis assay using the Cell Death Detection ELISA^plus kit. Left panel, immortalized Rat1 fibroblasts with different MYC status after 24 hours of 5 μM MYCMI-7 treatment, middle panel and right panels, normal REFs and normal peripheral blood lymphocytes, respectively, after 24 and 48 hours of 5 μM MYCMI-7 treatment. […] Viability was measured by trypan blue exclusion assay. F) Cell growth measured with Cyt62 assay of primary normal human epidermal melanocytes (NHEM) treated for 72 hours with MYCMI-7, G) Viability measured by trypan blue exclusion assay of NHEM after treatment for 72 hours with MYCMI-7.
Flow cytometry: P493-6 cells were synchronized using 1 μg/ml doxycycline. […] Cells were stained with propidium iodide (Sigma) and 1×10^4 cells per treatment were analyzed using a FACScan and CellQuestPro (Becton Dickinson). […]

normal REFs = experiment: apoptosis assay (Cell Death Detection ELISA), normal REFs; assay type: cell-based, rat; details: 5 μM, 24 and 48 hours
Procedure: FIG. 4: MYCMI-7 induces apoptosis in malignant cells and growth arrest in normal cells. A) Cell cycle distribution analysis by flow cytometry of MYC-regulated P493-6 cells and normal rat embryo fibroblasts (REFs). Left panel, P493-6 synchronized in G0 by 24 hours treatment of […] doxycycline. Doxycycline was removed and the cells were harvested 48 hours after the addition of fresh medium containing DMSO or 5 μM MYCMI-7. Right panel, flow cytometry analysis of normal REFs treated with DMSO or 5 μM MYCMI-7. B) Apoptosis assay using the Cell Death Detection ELISA^plus kit. Left panel, immortalized Rat1 fibroblasts with different MYC status after 24 hours of 5 μM MYCMI-7 treatment, middle panel and right panels, normal REFs and normal peripheral blood lymphocytes, respectively, after 24 and 48 hours of 5 μM MYCMI-7 treatment. C) Measurement of viability and apoptosis by Apo-Tox Glo Triplex assay in A375 melanoma cells after 3 days of treatment with MYCMI-7 with the indicated concentrations. […] E) NHDFs treated with 3 μM MYCMI-7 for 72 hrs. Viability was measured by trypan blue exclusion assay. F) Cell growth measured with Cyt62 assay of primary normal human epidermal melanocytes (NHEM) treated for 72 hours with MYCMI-7, G) Viability measured by trypan blue exclusion assay of NHEM after treatment for 72 hours with MYCMI-7.

CCN(CC)CC[n+]1ccc2c(C)c3[nH]c4ccccc4c3c(C)c2c1 [MYCMI-7, 2-(5,11-Dimethyl-6H-25-pyrido[4,3-b]carbazol-2-yl)-N,N-diethylethanamine bromide]
time of treatment within which MYC:MAX interaction was inhibited (MYC:MAX interaction): ≤ 4 h | inhibition of MYC:MAX GLuc interaction (MYC:MAX interaction; HeLa cells): inhibited | G1/S ratio compared to DMSO (P493-6 cells): higher G1/S ratio | cell death (sub-G1 cells) (P493-6 cells): strongly induced cell death | apoptosis (normal REFs): did not induce apoptosis
